“And” between values parts separate entries of the source, which are not always exact repeats. Identical values can stand only once.
What was measured:
[1] = tested on: micronucleated cells in blood; conditions: literature statement; cited from earlier work
[2] = tested on: micronucleated cells in blood; test: Single parameter flow cytometric micronucleus analysis, cyclophosphamide, effect of analysis window size; type: in vivo, mouse
Protocol: In order to show this single parameter embodiment of this invention, the instrument was aligned with the malaria parasite, P. berghei, data was acquired, and analysis windows were defined relative to the malaria peak. […] A prominent peak, characteristic of cells single parasites, is evident. The primary analysis window was used to bracket the main peak and extends to the third log has mark. […] Blood samples (t=0 and t=96 hr) from a mouse that was dosed with cyclophosphamide (at t=0 and t=48 hrs) were stained with […] and the events were also acquired in the single parameter mode. FIGS. 9A and 9B show the blue fluorescence histograms that were obtained for the t=0 and the t=96 hr samples, respectively. The analysis windows shown in FIG. 9 are those that were initially set up with the malaria infected blood sample shown in FIG. 8. The number of events present in the primary analysis windows are shown. […]
Practioners in the art are presently unaware of the need for internal quality control on the flow cytometer signals during the analysis of each sample. […] As indicated earlier, neither RBC, PCEs, MN-cells nor the nucleated cell populations provide proper signals for evaluating instrument alignment since they are either nor present in sufficient quantities, the populations are too dispersed, or cell staining variations would be introduced. […]

[3] = tested on: micronucleated cells in blood; test: Flow cytometric micronucleus assay, dual parameter data, cyclophosphamide, per 10^6 cells; type: in vivo, mouse; conditions: for Mns (T = 96 hr): Hoechst 33258; for Δ (T96 - T0): per mouse difference and mean of differences
Description: The fixation procedure can affect the permeability of a cell, cell morphology and the amount of undesirable autofluorescence that is associated with a cell preparation. Fixing procedures can cause changes in cell structure (that are reflected in the light scatter patterns) as well as changes in the distribution of the dye molecules within the cells (resulting in altered fluorescence emission patterns). Practioners of the art are unaware that fixing the cells at ultralow temperatures circumvents these fixation problems and provides cells that are suitable for subsequent staining and FCM analysis. Initially, the cells are centrifuged in order to separate them from serum components which could aggregate when added to cold fixative. To fix cells, a fresh blood sample (25 μl) containing an anticogulant is suspended in a solution containing 1% BSA and 10% dimethylsulfoxide (DMSO) in PBS (2 ml). The cells are centrifuged at 500×g for five minutes at room temperature. The supernatant is discarded and the pellet is resuspended in the small amount of residual supernatant that remains. This cell suspension is cooled to 0° C., the cells are diluted further with cold (-70° C.) absolute methanol (2 ml) and it is incubated at -70° C. for five minutes. The cell suspension is then immediately diluted with 1% BSA in PBS (10 ml) and is centrifuged at 500×g for 5 minutes. The low temperature treatment yields fixed cells with good morphology as viewed with either inverted phase contrast microscopy or fluorescent microscopy. Autofluorescence of these cells is very low, in contrast to glutaraldehyde or paraformaldehyde fixation procedures that are widely used in the art. Other volumes of blood and/or BSA in PBS are also compatible with this cell fixing process. The volume of methanol should be in the range of 0.5 to 20 ml. The temperature of the methanol should be in the range -30° C. to -90° C., and the fixation time in the range of 1 minute to 60 minutes for good results. When cells are fixed in alcohol at higher temperatures (e.g. in the range of +37° C. to - 20° C.), they tend to aggregate and quickly settle to the bottom of the centrifuge tube. […] Other ultra cold solvents can be used in place of methanol, such as acetone, methanol/acetone solutions, etc.. Two fixed cell samples can be prepared for each mouse, an initial (time=0) sample and a final time=96 hr sample. Cells fixed in this way can be stored at 0° C. for weeks with no significant deterioration and are ready for staining and MN analysis.
It is known to practioners in the art that a variety of fluorescent dyes can be used to stain the DNA and RNA of cells. Even so, the specific stain, combinations or staining conditions that are optimum for the FCM based micronucleus assay are unresolved. […] These dye can be used individually or together to stain different cell populations. By choosing proper concentrations of these two dyes in conjunction with 363 nm excitation wavelength, it is possible to obtain a blue fluorescence signal from the Hoechst 33258 labeled micronucleii. A red fluorescence signal can be obtained from propidium iodide labeled PCEs. Whereas neither the dye combination, the dye concentration, the dye excitation wavelengths nor the appropriate buffer systems are known to practitioners in the art for an FCM based micronucleus assay, the following staining protocal is submitted as an embodiment of the present invention. A 10× stock solution of the dye should be prepared by dissolving 14.3 mg Hoechst 33258 in methanol (100 ml). A working solution is then prepared by adding 0.25 ml of the 10× stock solution to 9.75 ml of complete Sorensen's buffer. This working solution is then passed through an 0.2 micron acro-filter disk (Gelman Sciences) to remove any debris. The filtered working solution is further diluted by adding 25 μl to 967.5 μl of saline buffer (9 g NaCl and 0.445 g sodium bicarbonate per liter). […]

[4] = CP 100 μg/g body wt IP at 0 and 48 hours
[5] = CP 100 μg/g body wt IP at 0 and 48 hours, listed as CP

## O=P1(N(CCCl)CCCl)NCCCO1 (stereo not drawn) [cyclophosphamide]
[1]
  clastogenic activity (documented): clastogenic activity of cyclophosphamide has been documented
[2]; cyclophosphamide at t=0 and t=48 hrs, primary or expanded window
  clastogen stimulated increase in MNs: clastogen stimulated increase in MNs is clearly evident
[2]; cyclophosphamide, primary window plus sequentially added secondary windows 2-8
  Sum96 (t = 96 hr): 1480 MN events and 1563 MN events and 1644 MN events and 1713 MN events and 1778 MN events and 1839 MN events and 1915 MN events
[3]; [4]
  Mns (T = 96 hr): 2954 MNs per 10^6 cells
  Δ (T96 - T0): 1124 MNs per 10^6 cells
[3]; [5]
  Mns (T = 96 hr): 2591 MNs per 10^6 cells and 2453 MNs per 10^6 cells and 2626 MNs per 10^6 cells and 2708 MNs per 10^6 cells and 2594 ± 106 MNs per 10^6 cells
  Δ (T96 - T0): 1099 MNs per 10^6 cells and 1039 MNs per 10^6 cells and 1074 MNs per 10^6 cells and 1282 MNs per 10^6 cells and 1124 ± 108 MNs per 10^6 cells
[3]; CP 100 μg/g body wt IP at 0 and 48 hours, t=96 hr mean minus t=0 mean
  Difference Mn96 - Mn0 (difference of the means): 1123 MNs per 10^6 cells
[3]; CP 100 μg/g body wt at 0 and 48 hours
  MN formation: large increase in MN formation
[3]; first method: difference of mean individual Δ values, CP minus saline
  Increase in MNs (MeanCP - MeanSaline), from mean Δ (T96 - T0): 1047 MNs per 10^6 cells
[3]; second method: difference of means, CP minus saline
  Increase in MNs (MeanCP - MeanSaline), from Mn96 - Mn0 of means: 1047 MNs per 10^6 cells
[3]; third method: t=0 values ignored, 1,000,000 cells
  Increase in MNs, means of the t=96 hr samples (dosed minus controls): 992 MN-cells
